Data on 15 compounds can be found in US5847108A, “Clathrate of isoflavone derivatives and edible composition comprising the same” (Fujicco Co., Ltd., priority 1996, dated 1998).

Data set [1] concerns postmenopausal osteoporosis model (femur). Kind of data set: Bone density of femur in postmenopausal osteoporosis model (ovariectomized rats, calcium deficient diet). It counts as in vivo, Sprague-Dawley rats. Particulars: ovariectomized rat femur, oral, 28 days; Means ± S.D.; a: vs nonclathrated, b: vs control (1%). The protocol: (§1) To obtain postmenopausal osteoporosis model, eighty-day-old Sprague-Dawley rats, on day 10 after ovariectomy, was grown for 28 days feeding with calcium deficient diet (Ca: 0.004%, P: 0.3%), with one group consisting of 5 to 6 rats. During the time the rats were growing, an isoflavone derivative, or a β-cyclodextrin clathrate thereof (see Table 3), was administered orally in the form of a solution or a suspension in 1% aqueous hydroxypropylcellulose. On the day before the final administration, urine was collected for 24 hours. Blood was collected from postcava at 4 hours after the final administration, and a femur was removed. The collected blood was separated to obtain serum according to a standard method. In order to determine the amounts of isoflavone derivatives in the obtained samples of urine and serum, the samples were subjected to the reactions for 2 hours at 37° C. through adding thereto 50 Units/ml of sulfatase (EC3.1.6.1; SIGMA CHEMICAL Co. LTD.) in 1 ml of acetate buffer (0.1M, pH 4.5). Then 1 ml of acetate buffer (0.1M, pH 4.5) containing β-glucuronidase (200 Units/ml, EC 3.2.1.31, WAKO JYUNYAKU KOGYO KABUSIKI KAISYA) was added to the mixture and incubated for 2 hours at 37° C. After treating it with Sep-Pak (Waters), the incubated solution was analyzed using HPLC as described in the above clathrate formation test. Concentration of each isoflavone derivatives in the sample was determined based on the values for daidzein, genistein, or glycitein as a standard. Bone density of femur was calculated based on wet weight and volume measured by pycnometer.

The nature of data set [2]: Serum (blood) level of isoflavone derivatives after oral administration to ovariectomized rats. The arrangement: species or system Sprague-Dawley rats. Particulars: in vivo. On the procedure: as §1
Data set [3] can be described thus: 24 h urinary excretion of isoflavone derivatives after oral administration to ovariectomized rats. The arrangement: species or system Sprague-Dawley rats. Particulars: in vivo, rat, 24 h urine on day before final administration, Means ± S.D., a: significantly different from nonclathrated (1%), read-out: Urinary Excretion Rate. On the procedure:
as §1, with “Then 1 ml of acetate buffer (0.1M, pH 4.5) containing β-glucuronidase (200 Units/ml, EC 3.2.1.31, WAKO JYUNYAKU KOGYO KABUSIKI KAISYA) was added to the mixture and incubated for 2 hours at 37° C.” left out

The conditions of data set [4]: in words, dietary intake; cited from earlier work.

As to `CC(=O)OC[C@H]1O[C@@H](Oc2ccc3c(=O)c(-c4ccc(O)cc4)coc3c2)[C@H](O)[C@@H](O)[C@@H]1O` [6"-O-acetyldaidzin], in data set [1], the “Bone Density” value is 1.492 ± 0.014 g/mL. Besides, the concentration at 4 h in data set [2] (rat) is 0.74 ± 0.05 µg/mL.

Turning to `CC(=O)OC[C@H]1O[C@@H](Oc2cc(O)c3c(=O)c(-c4ccc(O)cc4)coc3c2)[C@H](O)[C@@H](O)[C@@H]1O` [6"-O-acetylgenistin], in data set [1], the “Bone Density” value was 1.494 ± 0.028 g/mL. Besides, the concentration at 4 h in data set [2] (rat) turned out to be 0.78 ± 0.07 µg/mL.

As for `COc1cc2c(=O)c(-c3ccc(O)cc3)coc2cc1O[C@@H]1O[C@H](COC(C)=O)[C@@H](O)[C@H](O)[C@H]1O` [6"-O-acetylglycitin], in data set [1], the “Bone Density” value turned out to be 1.489 ± 0.012 g/mL. This compound came in with a concentration at 4 h in data set [2] (rat) of 0.72 ± 0.06 µg/mL.

On to `O=C(O)CC(=O)OC[C@H]1O[C@@H](Oc2ccc3c(=O)c(-c4ccc(O)cc4)coc3c2)[C@H](O)[C@@H](O)[C@@H]1O` [6"-O-malonyldaidzin], for which, in data set [1], the “Bone Density” value was determined as 1.488 ± 0.012 g/mL. For the same compound, the concentration at 4 h in data set [2] (rat) was 0.85 ± 0.05 µg/mL.

`O=C(O)CC(=O)OC[C@H]1O[C@@H](Oc2cc(O)c3c(=O)c(-c4ccc(O)cc4)coc3c2)[C@H](O)[C@@H](O)[C@@H]1O` [6"-O-malonylgenistin]: in data set [1], the “Bone Density” value amounted to 1.494 ± 0.013 g/mL. In data set [2] (rat), this compound returned a concentration at 4 h of 0.84 ± 0.04 µg/mL.

Turning to `COc1cc2c(=O)c(-c3ccc(O)cc3)coc2cc1O[C@@H]1O[C@H](COC(=O)CC(=O)O)[C@@H](O)[C@H](O)[C@H]1O` [6"-O-malonylglycitin], the “Bone Density” value in data set [1] was 1.489 ± 0.012 g/mL. Also, the concentration at 4 h in data set [2] (rat) was found to be 0.78 ± 0.05 µg/mL.

As for `O=C(O)CCC(=O)OC[C@H]1O[C@@H](Oc2ccc3c(=O)c(-c4ccc(O)cc4)coc3c2)[C@H](O)[C@@H](O)[C@@H]1O` [6"-O-succinyldaidzin], the “Bone Density” value in data set [1] amounted to 1.490 ± 0.030 g/mL. Moreover, the concentration at 4 h in data set [2] (rat) was 0.86 ± 0.03 µg/mL.

Take `O=C(O)CCC(=O)OC[C@H]1O[C@@H](Oc2cc(O)c3c(=O)c(-c4ccc(O)cc4)coc3c2)[C@H](O)[C@@H](O)[C@@H]1O` [6"-O-succinylgenistin]: in data set [1], the “Bone Density” value turned out to be 1.486 ± 0.028 g/mL. For the same compound, the concentration at 4 h in data set [2] (rat) is 0.82 ± 0.05 µg/mL.

`COc1cc2c(=O)c(-c3ccc(O)cc3)coc2cc1O[C@@H]1O[C@H](COC(=O)CCC(=O)O)[C@@H](O)[C@H](O)[C@H]1O` [6"-O-succinylglycitin]: in data set [1], the “Bone Density” value came to 1.477 ± 0.032 g/mL. This compound returned a concentration at 4 h in data set [2] (rat) of 0.79 ± 0.03 µg/mL.

Regarding `O=c1c(-c2ccc(O)cc2)coc2cc(O)ccc12` [daidzein], in data set [1], the “Bone Density” value amounted to 1.489 ± 0.013 g/mL. Besides, in data set [2] (rat), the concentration at 4 h is 0.65 ± 0.04 µg/mL.

`O=c1c(-c2ccc(O)cc2)coc2cc(O[C@@H]3O[C@H](CO)[C@@H](O)[C@H](O)[C@H]3O)ccc12` [daidzin]: the dose excreted at 24 h in data set [3] came to 9.3 ± 0.7%. In data set [1], the “Bone Density” value stood at 1.496 ± 0.015 g/mL. In addition, in data set [4], the “urinary excretion in Japanese female relative to female in Boston or Helsinki” value is on record as “ten times greater”. Moreover, in data set [2] (heading: Blood Level, rat serum, oral, 4 hours after the final administration, Means ± S.D., a: significantly different from nonclathrated (1%)), the concentration at 4 h is 0.84 ± 0.03 µg/mL.

On to `O=c1c(-c2ccc(O)cc2)coc2cc(O)cc(O)c12` [genistein], for which the “Bone Density” value in data set [1] is 1.492 ± 0.012 g/mL. The concentration at 4 h in data set [2] (rat) was 0.68 ± 0.03 µg/mL.

For `O=c1c(-c2ccc(O)cc2)coc2cc(O[C@@H]3O[C@H](CO)[C@@H](O)[C@H](O)[C@H]3O)cc(O)c12` [genistin], in data set [1], the “Bone Density” value was 1.502 ± 0.007 g/mL. Moreover, the concentration at 4 h in data set [2] (rat) was determined as 0.78 ± 0.04 µg/mL.

Take `COc1cc2c(=O)c(-c3ccc(O)cc3)coc2cc1O` [glycitein]: the “Bone Density” value in data set [1] turned out to be 1.493 ± 0.013 g/mL. For the same compound, the concentration at 4 h in data set [2] (rat) is 0.63 ± 0.05 µg/mL.

On to `COc1cc2c(=O)c(-c3ccc(O)cc3)coc2cc1O[C@@H]1O[C@H](CO)[C@@H](O)[C@H](O)[C@H]1O` [glycitin], for which the “Bone Density” value in data set [1] came out at 1.494 ± 0.015 g/mL. In data set [2] (rat), this compound yielded a concentration at 4 h of 0.75 ± 0.06 µg/mL.
